{"source": "PubChem BioAssay AID1918994", "about": "(Molecular Pharmacology Branch, DTP, NCI, 2023)", "note": "Values joined by “and” are separate entries in the source; they are usually repeats but may differ in a detail not shown here. Equal values may be shown once."}
{"test_system": "292921-168-R-J2-PDC complex spheroid growth", "assay": "Anticancer human tumor 292921-168-R-J2-PDC patient-derived pancreatic carcinoma cell line growth inhibition [AhR]", "conditions": "compound 0.0316 µM; stronger effect = lower value", "description": "(§1) Multicellular complex tumor spheroid response to aryl hydrocarbon receptor antagonists in combination with a variety of drugs and investigational agents in selected tumor cell lines\n(§2) The current study was undertaken to assess response to aryl hydrocarbon receptor antagonists in combination with standard-of-care drugs and investigational agents in solid tumor complex spheroid models. Complex spheroids include a stromal component modeled by human endothelial cells (HUVEC) and fibroblasts modeled by human mesenchymal stem cells (MSCs). The concentration ranges selected for each drug and investigational agent were based upon clinically achievable concentrations if the clinical Cmax of the agent was known.\n(§3) Compounds. The drugs and investigational agents: BAY 2416964 (NSC825713), GNF351 (NSC835774), CH-223191 (NSC835775), CPI-455 (NSC825282), aza-TdCyd (NSC777586), decitabine (NSC127716), belinostat (NSC758774), entinostat (NSC756642), pevonedistat (NSC761192), tazemetostat (NSC777109), talazoparib (NSC765396), olaparib (NSC753686), selinexor (NSC780203), nedisertib (M3814, NSC802822), bortezomib (NSC756655), venetoclax (NSC766270), doxorubicin (NSC123127), elimusertib (BAY189344, NSC800525), ceralasertib (AZD6738, NSC777638), TAK-243 (NSC785004), alisertib (NSC759677), etoposide (NSC141540), topotecan (NSC609699), eribulin (NSC707389), gemcitabine (NSC613327), carboplatin (NSC241240), cisplatin (NSC119875), and SN-38 (NSC673596) were obtained from the National Cancer Institute (NCI) Developmental Therapeutics Program Chemical Repository (32). The FDA-approved anticancer drug set is available from the Developmental Therapeutics Program at https://dtp.cancer.gov/organization/dscb/obtaining/available plates.htm. […] The stock solutions were prepared in dimethyl sulfoxide (DMSO, Sigma-Aldrich, St. Louis, MO, cat. D2650), except for the platinum compounds which were prepared in saline (Quality Biological, Gaithersburg, MD, cat. 114-055-101), at 800-fold the tested concentration and stored at -70 degrees C prior to their use. All drugs and investigational agents were tested over a range starting from a high concentration at or near the clinical Cmax and decreasing in half-log increments. If the clinical Cmax for an agent had not been determined, the highest concentration tested was 10 microM (Table 1).\n(§4) Cell Culture. All cells were maintained in an incubator at 37 degrees C and 5% CO2 with 95% humidity. The PDC lines were cultured according to standard operating procedures established by the NCI PDMR (https://pdmr.cancer.gov). Briefly, all PDCs were thawed and cultured in Matrigel-coated flasks prepared with a working solution of 1X Ham's F-12 nutrient mix, without supplementation (Invitrogen, Waltham, MA, cat. 11765054), 100 U/mL penicillin-streptomycin (Invitrogen, cat. 15140122), and 2.5% Matrigel (Corning Inc., Corning, NY, cat. 354248) for the first three passages. All PDCs were cultured in complete DMEM/F-12 media containing advanced DMEM/F-12 (Invitrogen, cat. 12634028), 4.9% defined fetal bovine serum, heat inactivated (HyClone Laboratories Inc., Logan, UT, cat. SH30070.03HI), 389 ng/mL hydrocortisone (Sigma-Aldrich, cat. H4001), 9.7 ng/mL human EGF recombinant protein (Invitrogen, cat. PHG0313), 23.4 microg/mL adenine (Sigma-Aldrich, cat. A2786), 97.3 U/mL penicillin-streptomycin (Invitrogen, cat. 15140122), 1.9 mM L-glutamine (Invitrogen, cat. 25030081), and 9.7 microM Y-27632 dihydrochloride (Tocris Bioscience, Bristol, United Kingdom, cat. 1254). The PDCs were cultured in complete DMEM/F12 media without 10 microM Y-27632 dihydrochloride for at least two passages prior to the screen. The established cell lines NCI-H1341 and […] were cultured in DMEM/F-12, HEPES (Invitrogen, cat. 11330032), 5% defined fetal bovine serum (HyClone Laboratories Inc., cat. SH30070.03), ITS premix universal culture supplement [insulin (5 microg/mL), transferrin (5 microg/mL), and selenious acid (5 ng/mL)] […]"}
{"smiles": "Nc1ccccc1NC(=O)c1ccc(CNC(=O)OCc2cccnc2)cc1", "viability, T/C": "76.9% and 70.7% and 72.6%"}
{"smiles": "Nc1ccn(C2OC(CO)C(O)C2(F)F)c(=O)n1", "note": "(centres undefined)", "viability, T/C": "11.7% and 10.6% and 9.71%"}
{"smiles": "Nc1ncn(C2CC(O)C(CO)O2)c(=O)n1", "note": "(centres undefined)", "viability, T/C": "95.7% and 100% and 89.4%"}
{"smiles": "O=C(C=Cc1cccc(S(=O)(=O)Nc2ccccc2)c1)NO", "viability, T/C": "68.6% and 72.8% and 73.1%"}
{"smiles": "O=C(c1cc(Cc2n[nH]c(=O)c3ccccc23)ccc1F)N1CCN(C(=O)C2CC2)CC1", "viability, T/C": "110% and 97.3% and 99.3%"}
{"test_system": "292921-168-R-J2-PDC complex spheroid growth", "assay": "Anticancer human tumor 292921-168-R-J2-PDC cell line growth inhibition [AhR];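 note: spheroids exposed to compounds for seven days after three days of growth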", "conditions": "compound 0.0949 µM; stronger effect = lower value", "description": "as §1, §2, §3, §4"}
{"smiles": "CC(C)CC(NC(=O)C(Cc1ccccc1)NC(=O)c1cnccn1)B(O)O", "note": "(centres undefined)", "viability, T/C": "0.72% and 0.67% and 0.85%"}
{"smiles": "CCN(c1cc(-c2ccc(CN3CCOCC3)cc2)cc(C(=O)NCc2c(C)cc(C)[nH]c2=O)c1C)C1CCOCC1", "viability, T/C": "109% and 96.8% and 96.2%"}
{"smiles": "CCc1c2c(nc3ccc(O)cc13)-c1cc3c(c(=O)n1C2)COC(=O)[C@]3(O)CC", "viability, T/C": "6.69% and 4.55% and 7%"}
{"smiles": "Nc1ncn(C2CC(O)C(CO)S2)c(=O)n1", "note": "(centres undefined)", "viability, T/C": "90.8% and 93.8% and 95.5%"}
{"smiles": "O=C(C=Cn1cnc(-c2cc(C(F)(F)F)cc(C(F)(F)F)c2)n1)NNc1cnccn1", "viability, T/C": "64.4% and 58.7% and 54.5%"}
{"test_system": "292921-168-R-J2-PDC complex spheroid growth", "assay": "Anticancer human tumor 292921-168-R-J2-PDC cell line growth inhibition [AhR];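 note: spheroids exposed to compounds for seven days after three days of growth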", "conditions": "compound 0.1 µM; stronger effect = lower value", "description": "as §1, §2, §3, §4"}
{"smiles": "CC(C)c1c(-c2ccccc2)nc2c(C#N)c[nH]n2c1=O", "viability, T/C": "117% and 104% and 107%"}
{"smiles": "CC(CO)NC(=O)c1cc(-c2ccc(Cl)cc2)nn(-c2cnn(C)c2)c1=O", "note": "(centres undefined)", "viability, T/C": "102% [middle of 21 runs]"}
{"smiles": "CC1(C)CCC(CN2CCN(c3ccc(C(=O)NS(=O)(=O)c4ccc(NCC5CCOCC5)c([N+](=O)[O-])c4)c(Oc4cnc5[nH]ccc5c4)c3)CC2)=C(c2ccc(Cl)cc2)C1", "viability, T/C": "106% and 105% and 104%"}
{"smiles": "CC1COCCN1c1cc(-c2ccnn2C)c2ccnc(-c3ccn[nH]3)c2n1", "note": "(centres undefined)", "viability, T/C": "36.3% and 32.1% and 32.4%"}
{"smiles": "CC1COCCN1c1cc(C2(S(C)(=N)=O)CC2)nc(-c2ccnc3[nH]ccc23)n1", "note": "(centres undefined)", "viability, T/C": "93.9% and 96.9% and 110%"}
{"smiles": "CC[C@@]1(O)C(=O)OCc2c1cc1n(c2=O)Cc2cc3c(CN(C)C)c(O)ccc3nc2-1", "viability, T/C": "28.4% and 23.3% and 20.4%"}
{"smiles": "COc1cc(C2c3cc4c(cc3C(OC3OC5COC(C)OC5C(O)C3O)C3COC(=O)C23)OCO4)cc(OC)c1O", "note": "(centres undefined)", "viability, T/C": "93.8% and 79.8% and 87.8%"}
{"smiles": "COc1cc(Nc2ncc3c(n2)-c2ccc(Cl)cc2C(c2c(F)cccc2OC)=NC3)ccc1C(=O)O", "viability, T/C": "49.2% and 45% and 39.5%"}
{"smiles": "COc1ccc([C@@H](O)c2cc(-c3ncnc4cc(N5CCOCC5)ccc34)c(F)cc2Cl)nn1", "viability, T/C": "99.2% and 95.5% and 101%"}
{"smiles": "COc1cccc2c1C(=O)c1c(O)c3c(c(O)c1C2=O)CC(O)(C(=O)CO)CC3OC1CC(N)C(O)C(C)O1", "note": "(centres undefined)", "viability, T/C": "26.1% and 17.6% and 21.9%"}
{"smiles": "Cc1cncc(-c2nc(NCCc3c[nH]c4ccccc34)c3ncn(C(C)C)c3n2)c1", "viability, T/C": "90.8% [middle of 20 runs]"}
{"smiles": "Cn1ncnc1C1c2n[nH]c(=O)c3cc(F)cc(c23)NC1c1ccc(F)cc1", "note": "(centres undefined)", "viability, T/C": "91.5% and 80.2% and 86%"}
{"smiles": "NS(=O)(=O)OCC1CC(n2ccc3c(NC4CCc5ccccc54)ncnc32)CC1O", "note": "(centres undefined)", "viability, T/C": "106% and 81.2% and 99.9%"}
{"smiles": "Nc1ccccc1NC(=O)c1ccc(CNC(=O)OCc2cccnc2)cc1", "viability, T/C": "61.6% and 61% and 53%"}
{"smiles": "Nc1ccn(C2OC(CO)C(O)C2(F)F)c(=O)n1", "note": "(centres undefined)", "viability, T/C": "9.82% and 10.9% and 7.67%"}
{"smiles": "Nc1ncn(C2CC(O)C(CO)O2)c(=O)n1", "note": "(centres undefined)", "viability, T/C": "93.7% and 93.1% and 77.7%"}
{"smiles": "O=C(C=Cc1cccc(S(=O)(=O)Nc2ccccc2)c1)NO", "viability, T/C": "60.2% and 62% and 60%"}
{"smiles": "O=C(c1cc(Cc2n[nH]c(=O)c3ccccc23)ccc1F)N1CCN(C(=O)C2CC2)CC1", "viability, T/C": "110% and 100% and 95.6%"}
{"test_system": "292921-168-R-J2-PDC complex spheroid growth", "assay": "Anticancer human tumor 292921-168-R-J2-PDC cell line growth inhibition [AhR];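 note: spheroids exposed to compounds for seven days after three days of growth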", "conditions": "compound 0.3 µM; stronger effect = lower value", "description": "as §1, §2, §3, §4"}
{"smiles": "CC(C)CC(NC(=O)C(Cc1ccccc1)NC(=O)c1cnccn1)B(O)O", "note": "(centres undefined)", "viability, T/C": "0.4% and 0.5% and 2.3%"}
{"smiles": "CCN(c1cc(-c2ccc(CN3CCOCC3)cc2)cc(C(=O)NCc2c(C)cc(C)[nH]c2=O)c1C)C1CCOCC1", "viability, T/C": "100% and 97.3% and 98.5%"}
{"smiles": "CCc1c2c(nc3ccc(O)cc13)-c1cc3c(c(=O)n1C2)COC(=O)[C@]3(O)CC", "viability, T/C": "3.7% and 2.95% and 3.56%"}
{"smiles": "Nc1ncn(C2CC(O)C(CO)S2)c(=O)n1", "note": "(centres undefined)", "viability, T/C": "88.6% and 81.2% and 78.3%"}
{"smiles": "O=C(C=Cn1cnc(-c2cc(C(F)(F)F)cc(C(F)(F)F)c2)n1)NNc1cnccn1", "viability, T/C": "39.5% and 34.5% and 32.4%"}
{"test_system": "292921-168-R-J2-PDC complex spheroid growth", "assay": "Anticancer human tumor 292921-168-R-J2-PDC cell line growth inhibition [AhR];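 note: spheroids exposed to compounds for seven days after three days of growth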", "conditions": "compound 0.316 µM; stronger effect = lower value", "description": "as §1, §2, §3, §4"}
{"smiles": "CC(C)c1c(-c2ccccc2)nc2c(C#N)c[nH]n2c1=O", "viability, T/C": "105% (2×) and 106%"}
{"smiles": "CC(CO)NC(=O)c1cc(-c2ccc(Cl)cc2)nn(-c2cnn(C)c2)c1=O", "note": "(centres undefined)", "viability, T/C": "98.8% [middle of 21 runs]"}
{"smiles": "CC1(C)CCC(CN2CCN(c3ccc(C(=O)NS(=O)(=O)c4ccc(NCC5CCOCC5)c([N+](=O)[O-])c4)c(Oc4cnc5[nH]ccc5c4)c3)CC2)=C(c2ccc(Cl)cc2)C1", "viability, T/C": "108% and 109% and 97.2%"}
{"smiles": "CC1COCCN1c1cc(-c2ccnn2C)c2ccnc(-c3ccn[nH]3)c2n1", "note": "(centres undefined)", "viability, T/C": "23.2% and 19.6% and 21.7%"}
{"smiles": "CC1COCCN1c1cc(C2(S(C)(=N)=O)CC2)nc(-c2ccnc3[nH]ccc23)n1", "note": "(centres undefined)", "viability, T/C": "89.8% and 90.3% and 106%"}
{"smiles": "COc1cc(C2c3cc4c(cc3C(OC3OC5COC(C)OC5C(O)C3O)C3COC(=O)C23)OCO4)cc(OC)c1O", "note": "(centres undefined)", "viability, T/C": "66.4% and 73% and 56%"}
